Measurements published in ChEMBL document CHEMBL6127050, “Simultaneous inhibition of FLT3 and HDAC by novel 6-ethylpyrazine-2-Carboxamide derivatives provides therapeutic advantages in acute myelocytic leukemia” (Eur J Med Chem, 2024).
Active and inactive are the calls of the source. The calls are words filed in the database; no cut-off is given here.

How the values were obtained:
[1] = target: T1, Histone deacetylase (Homo sapiens) (UniProt Q13547+O15379+Q9UBN7+Q92769+Q9UQL6+Q8WUI4+Q9BY41+Q96DB2+P56524+Q9UKV0+Q969S8); test: Inhibition of HDAC in human HeLa nuclear extract using Boc-Lys(Ac)-AMC as substrate at 200 nM incubated for 0.5 hrs by microplate reader analysis relative to control; format: cell-free
[2] = target: T1, Histone deacetylase (Homo sapiens); test: Inhibition of HDAC in human HeLa nuclear extract using Boc-Lys(Ac)-AMC as substrate at 10000 nM incubated for 0.5 hrs by microplate reader analysis relative to control; format: cell-free
Histone deacetylase = test: Inhibition of HDAC in human HeLa nuclear extract using Boc-Lys(Ac)-AMC as substrate incubated for 0.5 hrs by microplate reader analysis; format: cell-based
[3] = Cytotoxicity against HEK293T cells incubated for 48 hrs; format: toxicity, cell-based, HEK-293T; conditions: human
MOLM-13 [4] = test: Induction of cell cycle arrest in human MOLM-13 cells assessed as accumulation of cells at S-phase at 0.05 uM measured for 48 hrs by PI/RNase staining based flow cytometric analysis (reference value: 42.95%); format: functional
[5] = Toxicity in NOD/SCID mouse xenografted with human MOLM-13 cells assessed as increase in survival rate at 15 mg/kg, IG administered 5 days per week in presence of vorinostat by Kaplan Mayer survival analysis; format: organism-based; conditions: in vivo, po, 120 h, time 5 day
[6] = Toxicity in BALB/c mouse xenografted with human MOLM-13 cells assessed as lung damage at 10 mg/kg, IG qd administered 5 days a week and measured on day 9 in presence of vorinostat by H and E staining based analysis; format: organism-based; conditions: in vivo, po, 216 h, time 9 day
MOLM-13 [7] = test: Induction of cell cycle arrest in human MOLM-13 cells assessed as accumulation of cells at G0/G1 phase at 0.05 uM measured for 48 hrs in presence of vorinostat by PI/RNase staining based flow cytometric analysis (reference value: 46.24 %); format: functional
THP-1 = test: Antiproliferative activity against human THP-1 cells incubated for 48 hrs; conditions: THP-1, 48 h
MOLM-13 [8] = test: Antitumor activity against human MOLM-13 cells xenografted BALB/c mouse assessed as tumor growth inhibition at 10 mg/kg, IG qd administered 5 days a week and measured on day 9 in presence of vorinostat; format: functional; conditions: MOLM-13, po, 216 h, time 9 day, read-out: TGI
MOLM-13 [9] = test: Induction of cell cycle arrest in human MOLM-13 cells assessed as accumulation of cells at G2M phase at 0.05 uM measured for 48 hrs in presence of vorinostat by PI/RNase staining based flow cytometric analysis (reference value: 10.81%); format: functional
MOLM-13 [10] = test: Antitumor activity against human MOLM-13 cells xenografted BALB/c mouse assessed as reduction in tumor volume at 10 mg/kg, IG qd administered 5 days a week and measured on day 9 in presence of vorinostat; format: functional, organism-based; conditions: time 9.0 day
MOLM-13 [11] = test: Antiproliferative activity against human MOLM-13 cells incubated for 48 hrs; conditions: MOLM-13, 48 h
MOLM-13 [12] = test: Induction of apoptosis in human MOLM-13 cells assessed as necrotic at 0.1 uM incubated for 48 hrs by Annexin V-FITC staining based flow cytometry analysis (reference value: 0.013 %); format: functional
MOLM-13 [13] = test: Induction of apoptosis in human MOLM-13 cells assessed as viable cells at 0.1 uM incubated for 48 hrs by Annexin V-FITC staining based flow cytometry analysis (reference value: 94.5 %); format: functional; conditions: Homo sapiens, MOLM-13, read-out: Activity
MOLM-13 [14] = test: Induction of apoptosis in human MOLM-13 cells assessed as early apoptotic cells at 0.1 uM incubated for 48 hrs by Annexin V-FITC staining based flow cytometry analysis (reference value: 4.07 %); format: functional
MOLM-13 [15] = test: Induction of cell cycle arrest in human MOLM-13 cells assessed as accumulation of cells at S-phase at 0.05 uM measured for 48 hrs in presence of vorinostat by PI/RNase staining based flow cytometric analysis (reference value: 42.95%); format: functional
KG-1 = test: Antiproliferative activity against human KG-1 cells incubated for 48 hrs; conditions: KG-1, 48 h
MOLM-13 [16] = test: Induction of cell cycle arrest in human MOLM-13 cells assessed as accumulation of cells at G2M phase at 0.05 uM measured for 48 hrs by PI/RNase staining based flow cytometric analysis (reference value: 10.81%); format: functional
MOLM-13 [17] = test: Induction of apoptosis in human MOLM-13 cells assessed as necrotic cells at 0.1 uM incubated for 48 hrs in presence of vorinostat by Annexin V-FITC staining based flow cytometry analysis (reference value: 0.013 %); format: functional
K562 = test: Antiproliferative activity against human K562 cells incubated for 48 hrs; conditions: K562, 48 h
MOLM-13 [18] = test: Induction of cell cycle arrest in human MOLM-13 cells assessed as accumulation of cells at G0/G1 phase at 0.05 uM measured for 48 hrs by PI/RNase staining based flow cytometric analysis (reference value: 46.24 %); format: functional
[19] = Toxicity in BALB/c mouse xenografted with human MOLM-13 cells assessed as body weight loss at 10 mg/kg, IG qd administered 5 days a week and measured on day 9 in presence of vorinostat; format: organism-based; conditions: in vivo, po, 216 h, time 9 day
MOLM-13 [20] = test: Induction of apoptosis in human MOLM-13 cells assessed as early apoptotic cells at 0.1 uM incubated for 48 hrs in presence of vorinostat by Annexin V-FITC staining based flow cytometry analysis (reference value: 4.07 %); format: functional
MOLM-13 [21] = test: Induction of apoptosis in human MOLM-13 cells assessed as viable cells at 0.1 uM incubated for 48 hrs in presence of vorinostat by Annexin V-FITC staining based flow cytometry analysis (reference value: 94.5 %); format: functional; conditions: read-out: Activity
MOLM-13 [22] = test: Induction of apoptosis in human MOLM-13 cells assessed as late apoptotic cells at 0.1 uM incubated for 48 hrs in presence of vorinostat by Annexin V-FITC staining based flow cytometry analysis (reference value: 1.40 %); format: functional
MOLM-13 [23] = test: Induction of apoptosis in human MOLM-13 cells assessed as late apoptotic cells at 0.1 uM incubated for 48 hrs by Annexin V-FITC staining based flow cytometry analysis (reference value: 1.40 %); format: functional
[24] = target: T2, Receptor-type tyrosine-protein kinase FLT3 (Homo sapiens, UniProt P36888); test: Inhibition of FLT3 (unknown origin) incubated for 40 mins in presence of ATP by kinase-glo plus luminescence assay
T2 sequence (P36888 whole entry): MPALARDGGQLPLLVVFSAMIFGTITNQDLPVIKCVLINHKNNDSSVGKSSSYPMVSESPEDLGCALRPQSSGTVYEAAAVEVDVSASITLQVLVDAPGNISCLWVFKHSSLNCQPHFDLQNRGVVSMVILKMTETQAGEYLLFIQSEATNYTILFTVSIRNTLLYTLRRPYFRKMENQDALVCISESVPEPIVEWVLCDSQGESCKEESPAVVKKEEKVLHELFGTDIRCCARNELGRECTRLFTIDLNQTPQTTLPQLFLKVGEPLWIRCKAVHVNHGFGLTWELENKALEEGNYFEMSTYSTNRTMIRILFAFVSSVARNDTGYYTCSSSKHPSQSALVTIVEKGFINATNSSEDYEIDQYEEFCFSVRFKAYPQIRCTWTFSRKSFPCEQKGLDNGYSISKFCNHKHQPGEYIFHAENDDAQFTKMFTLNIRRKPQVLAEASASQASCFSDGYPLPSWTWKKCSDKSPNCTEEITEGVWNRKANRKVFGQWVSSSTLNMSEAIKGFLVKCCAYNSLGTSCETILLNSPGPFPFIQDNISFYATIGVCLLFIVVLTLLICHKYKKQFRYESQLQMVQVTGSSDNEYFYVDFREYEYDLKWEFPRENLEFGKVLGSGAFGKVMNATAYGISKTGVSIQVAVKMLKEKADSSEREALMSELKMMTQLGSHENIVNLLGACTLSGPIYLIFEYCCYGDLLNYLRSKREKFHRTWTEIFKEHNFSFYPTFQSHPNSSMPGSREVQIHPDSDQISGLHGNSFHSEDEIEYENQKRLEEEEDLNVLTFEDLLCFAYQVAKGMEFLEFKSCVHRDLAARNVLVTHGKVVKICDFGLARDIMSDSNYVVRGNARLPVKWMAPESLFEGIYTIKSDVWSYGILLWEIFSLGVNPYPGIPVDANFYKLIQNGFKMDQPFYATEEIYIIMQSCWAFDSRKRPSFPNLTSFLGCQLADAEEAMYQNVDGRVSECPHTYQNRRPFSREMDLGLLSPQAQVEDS

Compound: CCc1nc(C(N)=O)c(Nc2ccc(N3CCC(N4CCN(C(=O)CCCCCC(=O)NO)CC4)CC3)c(OC)c2)nc1NC1CCOCC1
- inhibition [1]: 14%

Compound: CCc1nc(C(N)=O)c(Nc2ccc(N3CCN(CCCCC(=O)NO)CC3)c(OC)c2)nc1NC1CCOCC1
- inhibition [1]: 1%

Compound: CCc1nc(C(N)=O)c(Nc2ccc(N3CCC(N4CCN(c5ncc(C(=O)Nc6ccccc6N)cn5)CC4)CC3)c(OC)c2)nc1NC1CCOCC1
- inhibition [2]: 4.3%

Compound: CCc1nc(C(N)=O)c(Nc2ccc(N3CCN(CCCC(=O)NO)CC3)c(OC)c2)nc1NC1CCOCC1
- inhibition [1]: 3%

Compound: CCc1nc(C(N)=O)c(Nc2ccc(N3CCC(N4CCN(Cc5ccc(C(=O)NCc6ccc(/C=C/C(=O)NO)cc6)cc5)CC4)CC3)c(OC)c2)nc1NC1CCOCC1
- IC50 (Histone deacetylase): 0.063 µM

Compound: CCc1nc(C(N)=O)c(Nc2ccc(N3CCC(N4CCN(Cc5ccc(/C=C/C(=O)NO)cc5)CC4)CC3)c(OC)c2)nc1NC1CCOCC1
- inhibition [1]: 28%

Compound: CCc1nc(C(N)=O)c(Nc2ccc(N3CCC(N4CCN(C(=O)CCCCCCC(=O)NO)CC4)CC3)c(OC)c2)nc1NC1CCOCC1
- inhibition [1]: 27%

Compound: CCc1nc(C(N)=O)c(Nc2ccc(N3CCC(N4CCN(Cc5ccc(C(=O)NO)cc5)CC4)CC3)c(OC)c2)nc1NC1CCOCC1
- inhibition [1]: 18%

Compound: CCc1nc(C(N)=O)c(Nc2ccc(N3CCN(Cc4ccc(/C=C/C(=O)NO)cc4)CC3)c(OC)c2)nc1NC1CCOCC1
- IC50 (Histone deacetylase): 0.0937 µM

Compound: CCc1nc(C(N)=O)c(Nc2ccc(N3CCN(CCC(=O)NO)CC3)c(OC)c2)nc1NC1CCOCC1
- inhibition [1]: 10%

Compound: CCc1nc(C(N)=O)c(Nc2ccc(N3CCC(N4CCN(C)CC4)CC3)c(OC)c2)nc1NC1CCOCC1 [GILTERITINIB]
- IC50 at 48 h [3]: 0.97 µM
- Activity (MOLM-13 [4]): 44.47%
- Activity [5]: Non-Toxic
- Activity [6]: Non-Toxic
- Activity (MOLM-13 [7]): 64.51%
- IC50 (THP-1): 0.85 µM
- inhibition in vivo at 10 mg/kg (MOLM-13 [8]): 55.3%
- Activity (MOLM-13 [9]): 7.24%
- Activity (MOLM-13 [10]): Active
- IC50 (MOLM-13 [11]): 0.012 µM
- Activity (MOLM-13 [12]): 0.36%
- viability at 0.1 µM (MOLM-13 [13]): 53.5%
- Activity (MOLM-13 [14]): 33.5%
- Activity (MOLM-13 [15]): 28.26%
- IC50 (KG-1): 0.62 µM
- Activity (MOLM-13 [16]): 5.53%
- Activity (MOLM-13 [17]): 0.88%
- IC50 (K562): 0.99 µM
- Activity (MOLM-13 [18]): 50%
- Activity [19]: Non-Toxic
- Activity (MOLM-13 [20]): 35%
- viability at 0.1 µM (MOLM-13 [21]): 46.8%
- Activity (MOLM-13 [22]): 17.4%
- Activity (MOLM-13 [23]): 12.7%

Compound: CCc1nc(C(N)=O)c(Nc2ccc(N3CCC(N4CCN(c5ncc(C(=O)NO)cn5)CC4)CC3)c(OC)c2)nc1NC1CCOCC1
- inhibition [1]: 18.7%

Compound: CCc1nc(C(N)=O)c(Nc2ccc(N3CCC(N4CCN(Cc5ccc(C(=O)Nc6ccccc6N)cc5)CC4)CC3)c(OC)c2)nc1NC1CCOCC1
- inhibition [2]: 27.5%

Compound: CCc1nc(C(N)=O)c(Nc2ccc(N3CCN(C(=O)CCCCCCC(=O)NO)CC3)c(OC)c2)nc1NC1CCOCC1
- IC50 (Histone deacetylase): 0.1473 µM

Compound: CCc1nc(C(N)=O)c(Nc2ccc(N3CCC(N4CCN(C(=O)CCCCC(=O)NO)CC4)CC3)c(OC)c2)nc1NC1CCOCC1
- inhibition [1]: 10%

Compound: CCc1nc(C(N)=O)c(Nc2ccc(N3CCC(N4CCN(C(=O)CCCC(=O)NO)CC4)CC3)c(OC)c2)nc1NC1CCOCC1
- inhibition [1]: 27%

Compound: CCc1nc(C(N)=O)c(Nc2ccc(N3CCC(N4CCN(CCCCCCCC(=O)NO)CC4)CC3)c(OC)c2)nc1NC1CCOCC1
- inhibition [1]: 28%

Compound: CCc1nc(C(N)=O)c(Nc2ccc(N3CCC(N4CCN(CCCCCC(=O)NO)CC4)CC3)c(OC)c2)nc1NC1CCOCC1
- inhibition [1]: 36%

Compound: CCc1nc(C(N)=O)c(Nc2ccc(N3CCN(C(=O)CCCCCC(=O)NO)CC3)c(OC)c2)nc1NC1CCOCC1
- IC50 (Histone deacetylase): 0.2043 µM

Compound: CCc1nc(C(N)=O)c(Nc2ccc(N3CCN(CCCCCCC(=O)NO)CC3)c(OC)c2)nc1NC1CCOCC1
- IC50 (THP-1): 1.55 µM
- IC50 (MOLM-13 [11]): 0.01 µM
- IC50 [24]: 0.0006 µM
- IC50 (KG-1): 1.44 µM
- IC50 (K562): 1.06 µM
- IC50 (Histone deacetylase): 0.33 µM

Compound: CCc1nc(C(N)=O)c(Nc2ccc(N3CCN(CCCCCC(=O)NO)CC3)c(OC)c2)nc1NC1CCOCC1
- inhibition [1]: 25%
